Structures can show the parent of a compound that is named as a salt.
Target: T1, recombinant IRAK-4 kinase (Homo sapiens, UniProt Q9NWZ3)
T1 construct: purchased Millipore, USA
T1 sequence (Q9NWZ3 1-460): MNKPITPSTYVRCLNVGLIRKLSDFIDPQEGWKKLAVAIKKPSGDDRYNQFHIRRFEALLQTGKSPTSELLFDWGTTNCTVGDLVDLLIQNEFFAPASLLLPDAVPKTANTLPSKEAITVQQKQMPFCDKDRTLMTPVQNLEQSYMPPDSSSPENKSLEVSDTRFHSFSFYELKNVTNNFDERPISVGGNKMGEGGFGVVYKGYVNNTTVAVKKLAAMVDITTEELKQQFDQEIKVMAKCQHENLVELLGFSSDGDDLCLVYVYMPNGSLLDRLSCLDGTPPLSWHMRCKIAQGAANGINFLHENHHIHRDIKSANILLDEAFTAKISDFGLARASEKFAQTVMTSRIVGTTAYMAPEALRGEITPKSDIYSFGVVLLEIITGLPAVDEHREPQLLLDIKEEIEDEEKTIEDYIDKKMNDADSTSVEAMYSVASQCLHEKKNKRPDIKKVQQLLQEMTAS
Assay: IRAK-4 Biochemical Assay (TR-FRET)
Details: 30 min pre-incubation, 100 nM Biotin Histone H3, 20 μM ATP, read-out: IC50 values for IRAK4 activity

IC50	SMILES
< 50 nM	CNc1cc(-c2nc(C(=O)Nc3cc4cn(C)nc4cc3N3CCCCC3)co2)ccn1 [Example 122, N-(2-methyl-6-(piperidin-1-yl)-2H-indazol-5-yl)-2-(2-(methylamino)pyridin-4-yl)oxazole-4-carboxamide hydrochloride]
< 50 nM	COCCn1nc(C)c2cc(NC(=O)c3coc(-c4ccnc(C)c4)n3)c(N3CCC(O)CC3)cc21 [Example 116, N-(6-(4-hydroxypiperidin-1-yl)-1-(2-methoxyethyl)-3-methyl-1H-indazol-5-yl)-2-(2-methylpyridin-4-yl)oxazole-4-carboxamide]
< 50 nM	Cc1cc(-c2nc(C(=O)Nc3cc4c(C)nn(C)c4cc3N3CCC(CO)CC3)co2)ccn1 [Example 111, N-(6-(4-(hydroxymethyl)piperidin-1-yl)-1,3-dimethyl-1H-indazol-5-yl)-2-(2-methylpyridin-4-yl)oxazole-4-carboxamide]
< 50 nM	COc1cc(-c2nc(C(=O)Nc3cc4cn(C)nc4cc3N3CCC(O)CC3)co2)ccn1 [Example 107, N-(6-(4-hydroxypiperidin-1-yl)-2-methyl-2H-indazol-5-yl)-2-(2-methoxypyridin-4-yl)oxazole-4-carboxamide hydrochloride]
< 50 nM	Cc1cc(-c2nc(C(=O)Nc3cc4cn(C)nc4cc3N3CCC(O)CC3)co2)cc(C)n1 [Example 126, 2-(2,6-dimethylpyridin-4-yl)-N-(6-(4-hydroxypiperidin-1-yl)-2-methyl-2H-indazol-5-yl) oxazole-4-carboxamide]
< 50 nM	Cn1cc(-c2cccc(C(=O)Nc3cc4cn(C5CCCC5)nc4cc3C3CC3)n2)cn1 [Example 18, N-(2-cyclopentyl-6-cyclopropyl-2H-indazol-5-yl)-6-(1-methyl-1H-pyrazol-4-yl)picolinamide]
< 50 nM	Cn1cc2cc(NC(=O)c3cccc(-c4cn[nH]c4)n3)c(C3CCCCC3)cc2n1 [Example 13, N-(6-cyclohexyl-2-methyl-2H-indazol-5-yl)-6-(1H-pyrazol-4-yl)picolinamide hydrochloride]
< 50 nM	Cn1cc2cc(NC(=O)c3cccc(-c4ccc(F)nc4)n3)c(N3CCCCC3)cc2n1 [Example 12, 6′-fluoro-N-(2-methyl-6-(piperidin-1-yl)-2H-indazol-5-yl)-[2,3′-bipyridine]-6-carboxamide hydrochloride]
< 50 nM	Cc1cc(-c2nc(C(=O)Nc3cc4cnn(C)c4cc3N3CCC(F)CC3)co2)ccn1 [Example 78, N-(6-(4-fluoropiperidin-1-yl)-1-methyl-1H-indazol-5-yl)-2-(2-methylpyridin-4-yl)oxazole-4-carboxamide]
< 50 nM	Cc1cc(-c2nc(C(=O)Nc3cc4cn(C)nc4cc3N3CCC(N)CC3)co2)ccn1 [Example 109, N-(6-(4-aminopiperidin-1-yl)-2-methyl-2H-indazol-5-yl)-2-(2-methylpyridin-4-yl)oxazole-4-carboxamide hydrochloride]
< 50 nM	Cc1cc(-c2nc(C(=O)Nc3cc4cn(C)nc4cc3N3CC(O)C3)co2)ccn1 [Example 61, N-(6-(3-hydroxyazetidin-1-yl)-2-methyl-2H-indazol-5-yl)-2-(2-methylpyridin-4-yl)oxazole-4-carboxamide]
> 100 nM	Cn1cc2cc(NC(=O)c3cccc(N4CC[C@H](N)C4)n3)c(C3CC3)cc2n1 [Example 48, (S)-6-(3-aminopyrrolidin-1-yl)-N-(6-cyclopropyl-2-methyl-2H-indazol-5-yl)picolinamide]
< 50 nM	Cc1cc(-c2ccc(C(=O)Nc3cc4cn(C)nc4cc3N3CCC[C@@H](O)C3)o2)ccn1 [Example 69, (R)—N-(6-(3-hydroxypiperidin-1-yl)-2-methyl-2H-indazol-5-yl)-5-(2-methylpyridin-4-yl)furan-2-carboxamide]
< 50 nM	Cc1cc(-c2nc(C(=O)Nc3cc4c(C)nn(C)c4cc3N3CCC(O)CC3)co2)ccn1 [Example 81, N-(6-(4-hydroxypiperidin-1-yl)-1,3-dimethyl-1H-indazol-5-yl)-2-(2-methylpyridin-4-yl)oxazole-4-carboxamide]
< 50 nM	Cc1cc(-c2nc(C(=O)Nc3cc4cn(C)nc4cc3N3CCCC3)co2)ccn1 [Example 63, N-(2-methyl-6-(pyrrolidin-1-yl)-2H-indazol-5-yl)-2-(2-methylpyridin-4-yl)oxazole-4-carboxamide]
< 50 nM	Cc1cc(-c2nc(C(=O)Nc3cc4cn(C5CCCC5)nc4cc3C#N)co2)ccn1 [Example 5, N-(6-cyano-2-cyclopentyl-2H-indazol-5-yl)-2-(2-methylpyridin-4-yl) oxazole-4-carboxamide]
< 50 nM	Cc1cc(-c2nc(C(=O)Nc3cc4cn(C)nc4cc3C3CCCCC3)co2)ccn1 [Example 11, N-(6-cyclohexyl-2-methyl-2H-indazol-5-yl)-2-(2-methylpyridin-4-yl)oxazole-4-carboxamide hydrochloride]

IC50	SMILES
< 50 nM	COCCn1nc(C)c2cc(NC(=O)c3coc(-c4ccnc(C)c4)n3)c(N3CCC(CO)CC3)cc21 [Example 110, N-(6-(4-(hydroxymethyl)piperidin-1-yl)-1-(2-methoxyethyl)-3-methyl-1H-indazol-5-yl)-2-(2-methylpyridin-4-yl)oxazole-4-carboxamide]
< 50 nM	Cc1nn(C)c2cc(N3CCC(CO)CC3)c(NC(=O)c3coc(-c4ccnc(N)c4)n3)cc12 [Example 112, 2-(2-aminopyridin-4-yl)-N-(6-(4-(hydroxymethyl)piperidin-1-yl)-1,3-dimethyl-1H-indazol-5-yl)oxazole-4-carboxamide]
50 to 100 nM	Cc1cc(-c2nc(C(=O)Nc3cc4cnn(C5CC5)c4cc3C3CC3)co2)ccn1 [Example 36, N-(1,6-dicyclopropyl-1H-indazol-5-yl)-2-(2-methylpyridin-4-yl)oxazole-4-carboxamide hydrochloride]
> 100 nM	Cn1cc(-c2cccc(C(=O)Nc3cc4cnn(C5CCCC5)c4cc3C3CC3)n2)cn1 [Example 17, N-(1-cyclopentyl-6-cyclopropyl-1H-indazol-5-yl)-6-(1-methyl-1H-pyrazol-4-yl)picolinamide]
< 50 nM	CN(C)c1cc(-c2nc(C(=O)Nc3cc4cn(C)nc4cc3N3CCCCC3)co2)ccn1 [Example 120, 2-(2-(dimethylamino)pyridin-4-yl)-N-(2-methyl-6-(piperidin-1-yl)-2H-indazol-5-yl)oxazole-4-carboxamide hydrochloride]
< 50 nM	COc1ccc(-c2nc(C(=O)Nc3cc4cn(C5CCCC5)nc4cc3C3CC3)co2)cn1 [Example 20, N-(2-cyclopentyl-6-cyclopropyl-2H-indazol-5-yl)-2-(6-methoxypyridin-3-yl)oxazole-4-carboxamide]
< 50 nM	Cc1cc(-c2nc(C(=O)Nc3cc4cn(C)nc4cc3N3CC[C@@H](O)C3)co2)ccn1 [Example 65, (R)—N-(6-(3-hydroxypyrrolidin-1-yl)-2-methyl-2H-indazol-5-yl)-2-(2-methylpyridin-4-yl)oxazole-4-carboxamide]
< 50 nM	Cc1cc(-c2nc(C(=O)Nc3cc4cn(C)nc4cc3N3CCCC(F)C3)co2)ccn1 (stereo not drawn) [Example 79, N-(6-(3-fluoropiperidin-1-yl)-2-methyl-2H-indazol-5-yl)-2-(2-methylpyridin-4-yl)oxazole-4-carboxamide]
< 50 nM	Cn1cc2cc(NC(=O)c3cccc(-c4cccnc4F)n3)c(N3CCCCC3)cc2n1 [Example 14, 2′-fluoro-N-(2-methyl-6-(piperidin-1-yl)-2H-indazol-5-yl)-[2,3′-bipyridine]-6-carboxamide]
< 50 nM	Cc1ccc(-c2nc(C(=O)Nc3cc4cn(C)nc4cc3N3CCCCC3)co2)cn1 [Example 25, N-(2-methyl-6-(piperidin-1-yl)-2H-indazol-5-yl)-2-(6-methylpyridin-3-yl)oxazole-4-carboxamide]
< 50 nM	COc1ccc(-c2nc(C(=O)Nc3cc4cn(C)nc4cc3N3CCCCC3)co2)cn1 [Example 21, 2-(6-methoxypyridin-3-yl)-N-(2-methyl-6-(piperidin-1-yl)-2H-indazol-5-yl)oxazole-4-carboxamide]
< 50 nM	COCCn1ncc2cc(NC(=O)c3coc(-c4ccnc(C)c4)n3)c(N3CCC(CO)CC3)cc21 [Example 94, N-(6-(4-(hydroxymethyl)piperidin-1-yl)-1-(2-methoxyethyl)-1H-indazol-5-yl)-2-(2-methylpyridin-4-yl)oxazole-4-carboxamide]
< 50 nM	Cc1cc(-c2nc(C(=O)Nc3cc4cn(C)nc4cc3N3CCC(CO)CC3)co2)ccn1 [Example 80, N-(6-(4-(hydroxymethyl)piperidin-1-yl)-2-methyl-2H-indazol-5-yl)-2-(2-methylpyridin-4-yl)oxazole-4-carboxamide]
< 50 nM	Cn1cc2cc(NC(=O)c3coc(-c4cccnc4O)n3)c(N3CCCCC3)cc2n1 [Example 32, 2-(2-hydroxypyridin-3-yl)-N-(2-methyl-6-(piperidin-1-yl)-2H-indazol-5-yl)oxazole-4-carboxamide]
< 50 nM	Cn1cc2cc(NC(=O)c3cccc(N4CC[C@H](O)C4)n3)c(C3CC3)cc2n1 [Example 49, (S)—N-(6-cyclopropyl-2-methyl-2H-indazol-5-yl)-6-(3-hydroxypyrrolidin-1-yl)picolinamide]
< 50 nM	Cc1cc(-c2nc(C(=O)Nc3cc4cn(C)nc4cc3N3CCCC(CO)C3)co2)ccn1 (stereo not drawn) [Example 82, N-(6-(3-(hydroxymethyl)piperidin-1-yl)-2-methyl-2H-indazol-5-yl)-2-(2-methylpyridin-4-yl)oxazole-4-carboxamide]

Source: US10160753B2, “Indazole compounds as IRAK4 inhibitors” (Aurigene Discovery Technologies Limited, priority 2014, dated 2018)
